The values below are quoted from earlier work in US10813882B1, “In situ gelling formulation for reduced initial drug burst” (King Abdulaziz University, priority 2019, dated 2020).

For data set [1] the following is noted: in vivo.

For orientation: bioavailability means the share of a dose that reaches the circulation, judged against a reference dose that is usually intravenous. In the case of `CC(C)c1nc(N(C)S(C)(=O)=O)nc(-c2ccc(F)cc2)c1/C=C/[C@@H](O)C[C@@H](O)CC(=O)O` [RSV, Rosuvastatin], the “bound to plasma protein” value with plasma protein is reported as 88%. Besides, the “solubility in organic solvent such as DMSO and DMF” value (DMSO, dimethyl formamide) is reported as “soluble”. For the same compound, the solubility in ethanol entry (ethanol) was “marginally soluble”. For the same compound, in data set [1], the bioavailability is 20%, the “effect of food on the amount absorbed” value is given as “does not affect” and the “time to maximum plasma level” value was 3 to 5 h.
